Measurements published in patent US20220220565A1, “METHODS AND COMPOSITIONS FOR TREATING MELANOMA” (INSERM (INSTITUT NATIONAL DE LA SANTÉ ET DE LA RECHERCHE …, priority 2019, published 2022).
“Also recorded” adds a separate entry of the source.

How the values were obtained:
[1] = system: 501Mel control cells; assay: Cell migration of control cells; format: cell-based, human; details: IKK inhibition or TWIST1 depletion
Protocol: (§1) Serum-stimulated chemotaxis, invasion and transendothelial migration were monitored using modified Boyden chambers (8 μm pores, Sigma) as described before. For invasion assays, the upper side of the filter was coated with 0.5 mg.ml-1 matrigel (Corning, N.Y., USA). Migrated cells were stained with crystal violet and counted (four fields randomly per well). For transendothelial migration, 105 HUVECs were grown in the upper chamber of gelatin-coated

[2] = system: PTX3; assay: PTX3 expression and secretion (immunoblot of lysates and CM); format: cell-based, human; details: 1205Lu cells treated with IKK inhibitor
Protocol: (§2) Immunohistochemistry and immunoblot analysis were performed as described before. IHC analysis was performed on melanoma tissue microarrays (US Biomax, MD, USA) using PTX3 antibody (HPA069320, Sigma-Aldrich; 1:50). For immunoblotting, the following antibodies were used at 1:1,000: SPARC (Bio-Techne), PTX3 (Enzo Life Sciences, Switzerland), HSP90, HSP60, TLR4, Fibronectin, ERK2 (Santa Cruz Biotechnology), MITF (Thermo Fisher Scientific), TWIST1 (Abcam, UK), SNAIL, phospho-IKKα/β (Ser176/180), NF-κB p65, phospho-NF-κB p65 (Ser536), I[…]B[…] (L35A5), I[…]B[…] (Ser32/36), IKKα, IKKβ, MYD88, phospho-AKT (Ser473), phospho-ERK1/2 (Thr202/Tyr204) (Cell Signaling Technology, MA, USA).

[3] = system: melanoma cells; assay: Cell migration upon IKK targeting; format: cell-based, human; details: IKK targeting in melanoma cells
Protocol: as §1

[4] = system: PTX3-expressing 501Mel cells; assay: PTX3-mediated cell migration; format: cell-based, human; details: data not shown
Protocol: as §1

[5] = system: EMT factors TWIST1 and SNAIL; assay: EMT factor expression (immunoblot); format: cell-based, human; details: IKK targeting in melanoma cells
Protocol: as §2

[6] = system: 1205Lu-Luc+ cells; assay: In vitro cell migration of shRNA-transduced cells (Boyden chamber); format: cell-based, human; details: among shPTX3-1 to 5; data not shown
Protocol: Negative control, PTX3 siRNA duplexes were designed by Thermo Fisher Scientific. MITF (sc-35934), MYD88 (sc-35986) and TWIST1 (sc-38604) siRNAs were from Santa Cruz Biotechnology (TX, USA). IKKα, IKKβ, and TLR4 siRNAs were from Dharmacon (CO, USA). Transfection of siRNA was carried out using Lipofectamine RNAiMAX (Thermo Fisher Scientific), at a final concentration of 25 or 50 nM. Unless stated otherwise, cells were assayed 3 days post transfection. Lentiviral vectors for stable knockdown of PTX3 (NM_002852) in melanoma cells were TRC1.5-pLKO.1-puro vectors containing a s (shPTX3-1 to 5) (Genomic center, University of Minnesota, USA). Lentiviral, packaging (psPAX2) and enveloppe (pMD2.0G) vectors were transfected into HEK293T cells and virus-containing supernatant fractions were harvested after 72 h. The supernatant fractions were filtered and used to infect bioluminescent 1205Lu cells (1205Lu-Luc+) that were described before. Transduced cells were selected with 2 μg/ml puromycin for 3 weeks. The efficiency of PTX3 knockdown was assessed by immunoblotting and analysis of in vitro cell migration using modified Boyden chambers. […]
Serum-stimulated chemotaxis, invasion and transendothelial migration were monitored using modified Boyden chambers (8 μm pores, Sigma) as described before. […] Migrated cells were stained with crystal violet and counted (four fields randomly per well). […]

[7] = system: 1205Lu-Luc+ cells; assay: Experimental lung metastasis (long-term lung colonization) by bioluminescent melanoma cells; format: in vivo, nude mice
Protocol: All mouse experiments were carried out in accordance with the Institutional Animal Care and local ethics committees. For experimental lung metastasis studies, 5-week-old female nude mice (Harlan, IN, USA) were intravenously injected with 1205Lu Luc+cells (1×106) that were transduced with a non targeting shRNA lentivirus (shCTRL) or a PTX3 targeting shRNA lentivirus (shPTX3-5). Images were acquired using a Photon Imager (Biospace Lab, France) on mice injected i.p with 50mg.kg-1 D-luciferin (PerkinElmer, MA, USA). Lung metastasis was monitored and quantified using BLI [12]. In a second set of experiments, short-term lung colonization assays were performed with Cell Tracker Orange-stained 501Mel cells stably expressing PTX3 or not. Cells were intravenously injected in 5-week-old female nude mice that were sacrificed either 30 min or 24 h later. Lungs were perfused with PBS, fixed in 4% paraformaldehyde, OCT-embedded, cryosectioned, immunostained and imaged using a confocal microscope as described.

[8] = system: 1205Lu cells; assay: Matrigel invasion assay; format: cell-based, human; details: siPTX3-transfected cells, rhPTX3 100 ng.ml-1
Protocol: as §1
(§3) Transwell inserts and treated with human TNFa (10 ng.ml-1) for 16 h. Melanoma cells were allowed to migrate for 6 h or 16 h and migrated cells were visualized and quantified as before. Pictures of five random fields were captured for quantification using NIH ImageJ analysis software. For scratch assays, melanoma cells were grown approximately 80% confluence in 6-well plates. Wounds were generated using a sterile 200 μl pipette tip across each well. Following treatment with rhPTX3 or CM, pictures of four random fields were captured using an imaging station and the number of migrated cells in wounded area was counted with NIH ImageJ analysis software.

[9] = system: SKMel28 cells; assay: In vitro scratch assay; format: cell-based, human; details: rhPTX3 added to wounded monolayers of PTX3-negative cells
Protocol: as §3

[10] = system: A375 cells; assay: Serum-stimulated migration (modified Boyden chamber / Transwell); format: cell-based, human; details: siPTX3-transfected cells, rhPTX3 100 ng.ml-1
Protocol: as §1, §3

[11] = system: 1205Lu cells; assay: as above; format: cell-based, human
Protocol: as §1, §3

[12] = system: 1205Lu cells; assay: Transendothelial migration on monolayers of TNFα-activated HUVECs; format: cell-based, human; details: rhPTX3 100 ng.ml-1, 6 h
Protocol: as §1, §3

In the case of `Cc1ccc2nc(NCCN)c3ncc(C)n3c2c1` [BMS345541], the “migration of control cells” value [1] is reported as “also reduced”, the “autocrine production of PTX3” value [2] is reported as “impaired the autocrine production of PTX3” and the cell migration [3] is reported as “reduced”. For the same molecule, the PTX3-mediated cell migration [4] was “reduction of PTX3-mediated cell migration” and the EMT factors levels [5] was “reduced EMT factors levels”.
In the case of “shPTX3-5: lentiviral shRNA for stable knockdown of PTX3 (TRC1.5-pLKO.1-puro vector), SEQ ID NO: 1 (DNA CCGGGAGGAGCTCAGTATGTTTCATCTCGAGATGAAACATACTGAGCTCCTCTTTTTTG)”, the “reduction of cell migration compared to shCtrl” value [6] is reported as “most efficient in reducing cell migration”, the “arrest of injected cells into the lungs (BLI)” value ([7]; 15 min after tail vein injection, vs shCTRL) is reported as “equally arrested into the lungs” and the “lung colonization (BLI)” value ([7]; during 15 days after tail vein injection, vs shCTRL) is reported as “dramatic reduction in lung colonization”. For the same molecule, the “reduction in experimental lung metastasis (ex vivo BLI)” value ([7]; endpoint of the assay, stable PTX3 knockdown vs control cells) was 6 fold.
“recombinant PTX3: recombinant human PTX3 (Bio-Techne)” was tested, and the “rescue of invasiveness of PTX3-depleted cells” value [8] was “restored the impaired invasiveness”, the “migration in wound area” value [9] was “enhanced the migration” and the “rescue of migration of PTX3-depleted cells” value [10] was “rescued the migratory ability”. For the same molecule, the “rescue of migration by recombinant PTX3 in cells treated with a MYD88 inhibitory peptide” value ([11]; data not shown) was “failed to rescue migration”, the “rescue of migration of PTX3-depleted cells” value ([11]; siPTX3-transfected cells, rhPTX3 100 ng.ml-1) was “rescued the migratory ability; also recorded: restored the migration” and the “rescue of migration of TLR4 silenced cells” value ([11]; siTLR4-transfected cells stimulated with rhPTX3 for 4 h) was “ineffective to restore the migration”. For the same molecule, the “rescue of transendothelial migration of PTX3-depleted cells” value [12] was “rescued”.
